Measurements reported in patent US20160220523A1 (GEORGETOWN UNIVERSITY, priority 2013, published 2016).

Assays:
Format in all cases: cell-based, murine
IL-1β = assay: LPS-induced IL-1β expression in BV2 cells (RT-PCR)
Experimental: (§1) PGC-1α expression was determined by RT-PCR.
(§2) Then the cells were treated with 100 ng/mL LPS for 4 hrs. […] (**p<0.01 vs. control; ##p<0.001 vs. LPS).
(§3) Cell lysate was collected for Western blotting analysis.
(§4) MN9D cells were cultured in Dulbecco's Modified Eagle Medium (DMEM) supplemented with 10% fetal bovine serum, and 3.7 g/L sodium bicarbonate at 37° C., 5% carbon dioxide. BV-2 cells (murine microglia) were maintained in DMEM supplemented with 10% fetal bovine serum and antibiotics (penicillin, 100 U/mL, streptomycin […]). Antibiotics were omitted for the fenofibrate evaluation study.
(§5) AMPK is an energy sensor and can phosphorylate PGC-1α. It is plausible that AMPK phosphorylates PGC-1α and that PGC-1α then acts through positive feedback, binding to myocyte enhancer factor (MEF)-binding site to increase its own gene expression.

AMPK = AMPK phosphorylation in BV2 cells (Western blot); details: compound C 0.5 hour, then fenofibrate 1 hour
Experimental: as §3
BV-2 cells (murine microglia) were maintained in Dulbecco's Modified Eagle Medium supplemented with 10% fetal bovine serum and antibiotics (penicillin, 100 U/mL, streptomycin 100 μg/mL). Antibiotics were omitted for the fenofibrate evaluation study.
as §5

PGC-1α = PGC-1α expression in LPS-treated BV2 cells (RT-PCR); details: GW6471 0.25-2 μM 0.5 hrs, 20 μM fenofibrate 18 hrs, 100 ng/mL LPS 4 hrs
Experimental: as §1, §2, §4

| Compound | effect on fenofibrate mediated anti-inflammation (IL-1β gene expression) (IL-1β; Compound C 0.5 hour, then fenofibrate overnight, LPS) | AMPK phosphorylation under fenofibrate (AMPK) | effect on fenofibrate mediated PGC-1α upregulation (PGC-1α) | effect on fenofibrate mediated anti-inflammatory effects (IL-1β mRNA) (IL-1β; GW6471 0.25-2 μM 0.5 hrs, 20 μM fenofibrate 18 hrs, 100 ng/mL LPS 4 hrs) |
| --- | --- | --- | --- | --- |
| c1cc(-c2cnn3cc(-c4ccc(OCCN5CCCCC5)cc4)cnc23)ccn1 [compound C] | weakened the anti-inflammatory effects of fenofibrate | concentration-dependent inhibitory effect | – | – |
| CCC(=O)NC[C@H](Cc1ccc(OCCc2nc(-c3ccccc3)oc2C)cc1)N/C(C)=C\C(=O)c1ccc(C(F)(F)F)cc1 [GW6471] | – | – | fails to suppress | fails to suppress |
